Measured values published in US9933367B2, “Method to identify and isolate pluripotent stem cells using endogenous blue fluorescence” (NATIONAL CENTRE FOR BIOLOGICAL SCIENCES, priority 2012, dated 2018).
Entries after “also recorded” stand apart in the source; their conditions may differ.

Key:
HPSCs = assay: Supplementing HPSC culture media with retinyl palmitate or retinol; blue fluorescence of lipid bodies; format: cell-based, human
Description: All non-confocal epifluorescence images are obtained with a Nikon Eclipse TE2000-E-PFS (Japan) microscope with a Photometrix Cascade II 512 EM-CCD camera (Roper Scientific, USA) and Image Pro-Plus AMS software (Media Cybernetics, USA). The Nikon objectives used are 60×/NA1.4 oil immersions and 10×/NA 0.3 for all experiments. Fluorescence is visualized using band pass filters (Chroma Technology, USA). The filters used are Blue (Exciter—350 nm/50, Dichoric—400 nm long pass, Emitter—460 nm/50), Green (Exciter—500 nm/20, Dichoric—535 nm/30, Emitter—515 long pass) and Red (Exciter—450 nm/30, Dichoric—620 nm/0, Emitter—570 long pass). Confocal images are acquired using a Zeiss LSM 510 Meta Confocal set up with a 63× objective and a 405 laser (excitation—405 nm, emission—about 420 nm to about 490 nm). […] For quantitative analysis and depiction of images for direct comparison, for e.g. between mouse ES cells and human ES cells, all the images presented have the same intensity scale bounded by the adjusted maximum value of the HuES cell image. Scatter plot and linear fit analyses of pluripotency marker expression (OCT4, SOX2 and Nanog) and blue fluorescence is performed with fluorescence intensity values of individual pixels using the ‘plot profile’ application from ImageJ. […] The increase in fluorescence intensities is also found to be confined to the lipid bodies.

[1] = test system: mouse embryonic stem cells; assay: Mouse ES cells grown in media with additional retinol; blue fluorescence and lipid bodies; format: cell-based; settings: 20% KOSR media with retinol, 48 hours
Description: The increase in fluorescence intensities is also found to be confined to the lipid bodies.

HuES cells = HuES cells in retinol-free E8 media supplemented with retinol; fluorescent lipid bodies; format: cell-based, human; settings: HuES cells cultured in E8 media (lacks retinol), retinol 10 μM added
Procedure: HuES cells cultured in E8 media show a rapid decrease in lipid bodies along with associated fluorescence in 24 hours, and the lipid bodies are completely absent by 72 hours (FIG. 10). […] A possible reason could be the differential expression of proteins involved in retinoid uptake and metabolism between the two states/cell types.

Row | SMILES | blue fluorescence in the HPSCs emanating from the lipid bodies (HPSCs; culture media supplemented with retinol) | retinoid-associated (blue) fluorescence [1] | fluorescent lipid bodies after addition to E8 cultures (HuES cells) | mean blue fluorescence intensity in the lipid bodies (HPSCs; HPSCs on MEF feeder cells, typical media with 20% KOSR, supplemented at 2-10 μM, after 24 hours)
1 | CC1=C(/C=C/C(C)=C/C=C/C(C)=C/CO)C(C)(C)CCC1 [retinol] | dose-dependent increase | practically no increase; also recorded: do not show any increase in blue fluorescence | re-appearance of fluorescent lipid bodies; also recorded: regain blue fluorescent lipid bodies in 48 hours | 
2 | CCCCCCCCCCCCCCCC(=O)OC/C=C(C)/C=C/C=C(C)/C=C/C1=C(C)CCCC1(C)C [retinyl palmitate] |  |  |  | dose-dependent saturable increase; also recorded: dose dependent increase in blue fluorescence
